Test results reported in PMC11243058, “Identification of Novel Isatin Derivative Bearing a Nitrofuran Moiety as Potent Multi-Isoform Aldehyde Dehydrogenase Inhibitor” (Molecules, 2024).
Where two headings read alike, the source gives them in different places.

Assays:
SKOV-3 = experiment: Cell viability assay (MTS), SKOV-3; type: cell-based, human; conditions: 48 h, mean ± SD
Protocol: (§1) Five thousand cells/well were plated in 96-well plates in growth media and left for attachment for 24 h. The cells were then treated with the respective compounds using varying concentrations for 48 h. At the end of the treatment duration, a solution of MTS [3-(4,5-dimethylthiazol-2-yl)-5-(3-carboxymethoxyphenyl)-2-(4-sulfophenyl)-2H-tetrazolium] and an electron coupling reagent, PES (phenazine ethosulfate) (Promega, Madison, WI, USA) was added to the cells. Then, 15 μL of MTS reagent was added to each well, and the absorbance was assessed at 490 nm with a microplate reader (Dynex Technologies, MRX Revelation; Chantilly, VA, USA) after 1 h incubation with MTS. The data were recorded, and the IC50 value was calculated using non-linear curve regression analysis (Graph pad V8.0, CA, USA).

MiaPaCa-2 = experiment: Cell viability assay (MTS), MiaPaCa-2; type: cell-based, human; conditions: 48 h, mean ± SD
Protocol: as §1

HCT-116 = experiment: Cell viability assay (MTS), HCT-116; type: cell-based, human; conditions: 48 h, mean ± SD
Protocol: as §1

HEK-293 = experiment: Cell viability assay (MTS), HEK-293; type: cell-based; conditions: 48 h, mean ± SD
Protocol: as §1

FHC = experiment: Cell viability assay (MTS), FHC; type: cell-based; conditions: normal fetal human cells, 48 h, mean ± SD
Protocol: as §1

[1] = test system: SKOV-3, MiaPaCa-2, HCT-116, HEK-293, and FHC cell lines; experiment: Cell viability assay (MTS), statements over the cell line panel; type: cell-based, human; conditions: for IC50: read-out: IC50 in cancer cell lines; for IC50 / cytotoxicity against the tested cell lines: range or statement over all tested cell lines
Protocol: as §1

ALDH1A1 = target: T1, ALDH1A1 (Homo sapiens, UniProt P00352); experiment: ALDH isoform-specific enzyme inhibition assay, ALDH1A1; type: biochemical; conditions: Acetaldehyde (Substrate)
T1 construct: purchased R&D systems
T1 sequence (P00352 1-501): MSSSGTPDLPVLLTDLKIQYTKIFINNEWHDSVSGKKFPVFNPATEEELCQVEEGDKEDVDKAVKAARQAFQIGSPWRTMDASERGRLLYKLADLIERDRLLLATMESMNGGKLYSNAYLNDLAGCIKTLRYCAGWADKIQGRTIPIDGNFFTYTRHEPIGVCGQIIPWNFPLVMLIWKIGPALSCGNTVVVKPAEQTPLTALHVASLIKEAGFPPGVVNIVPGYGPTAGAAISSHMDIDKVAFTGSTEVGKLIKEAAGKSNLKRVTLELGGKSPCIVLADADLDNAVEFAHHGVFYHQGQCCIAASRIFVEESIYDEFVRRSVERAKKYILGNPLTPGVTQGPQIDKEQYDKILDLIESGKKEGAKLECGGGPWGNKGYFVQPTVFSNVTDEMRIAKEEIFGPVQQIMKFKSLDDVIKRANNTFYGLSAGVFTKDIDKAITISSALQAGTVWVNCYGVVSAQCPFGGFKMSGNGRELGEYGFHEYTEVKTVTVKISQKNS
Protocol: (§2) ALDH1A1, ALDH3A1, and ALDH1A3 enzyme inhibition assays were performed as reported previously. Briefly, 500 ng/100 uL of ALDH1A1, ALDH3A1, and ALDH1A3 were treated with 500 nM concentration of the tested compounds and incubated for 15 min followed by the addition of reaction mixture (substrate + Substrate mixture). […] The absorbance was measured at 450 nm. [Absorbance Control–Absorbance treated/Absorbance Control]100 was used to compute the percentage of inhibition.

ALDH3A1 = target: T2, ALDH3A1 (Homo sapiens, UniProt P30838); experiment: ALDH isoform-specific enzyme inhibition assay, ALDH3A1; type: biochemical; conditions: Acetaldehyde (Substrate)
T2 construct: purchased R&D systems
T2 sequence (P30838 1-453): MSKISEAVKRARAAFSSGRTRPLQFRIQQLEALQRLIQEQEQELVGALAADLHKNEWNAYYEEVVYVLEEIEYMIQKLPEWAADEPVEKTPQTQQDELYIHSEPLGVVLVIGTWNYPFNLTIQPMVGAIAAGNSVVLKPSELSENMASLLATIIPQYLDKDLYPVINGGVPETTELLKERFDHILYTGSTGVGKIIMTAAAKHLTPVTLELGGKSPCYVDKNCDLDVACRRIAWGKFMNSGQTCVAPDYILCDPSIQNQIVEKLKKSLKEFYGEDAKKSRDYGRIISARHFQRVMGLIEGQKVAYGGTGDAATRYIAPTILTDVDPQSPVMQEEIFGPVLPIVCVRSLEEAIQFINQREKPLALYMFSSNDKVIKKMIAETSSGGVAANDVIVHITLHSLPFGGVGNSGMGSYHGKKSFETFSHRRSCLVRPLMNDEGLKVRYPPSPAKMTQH
Protocol: as §2

[2] = Homo sapiens, SK-OV-3, ovarian cancer cells
[3] = Homo sapiens, MIA PaCa-2, pancreatic cancer cells
[4] = Homo sapiens, HCT-116, colon cancer cells
[5] = HEK293, human embryonic kidney cells
[6] = Homo sapiens, Pancreatic cancer cell, 48 h
[7] = Homo sapiens, Pancreatic cancer cell, ovarian, colon, and pancreatic cancer cells, 48 h MTS

Compound | IC50 (SKOV-3; [2]) [µM] | IC50 (MiaPaCa-2; [3]) [µM] | IC50 (HCT-116; [4]) [µM] | IC50 (HEK-293; [5]) [µM] | IC50 (FHC; FHC) [µM] | IC50 [1, 6] [µM] | melting point [°C] | IC50 [1, 7] [µM] | IC50 / cytotoxicity against the tested cell lines ([1]; 48 h MTS) | IC50 (SKOV-3; ovarian cancer cells) [µM] | IC50 (MiaPaCa-2; pancreatic cancer cells) [µM] | IC50 (HCT-116; colon cancer cells) [µM] | IC50 (HEK-293; human embryonic kidney cells) [µM] | IC50 (FHC) [µM] | % Enzyme Inhibition at 500 nM ALDH1A1 (ALDH1A1) [%] | % Enzyme Inhibition at 500 nM ALDH3A1 (ALDH3A1) [%] | IC50 ([1]; ovarian, colon, and pancreatic cancer cells, 48 h MTS) [µM]
CN(C)CCC(=O)c1ccc(Cn2nc(Br)c3cc(C(F)(F)F)ccc32)cc1.Cl [Compound 21, 1-(4-((3-Bromo-5-(trifluoromethyl)-1H-indazol-1-yl)methyl)phenyl)-3-(dimethylamino)propan-1-one hydrochloride] | > 50 | > 50 | > 50 | > 50 | > 50 | > 50 | 171 to 173 |  |  |  |  |  |  |  |  |  | 
OCc1ccc(Cn2nc(Br)c3cc(C(F)(F)F)ccc32)cc1 [Compound 19, (4-((3-Bromo-5-(trifluoromethyl)-1H-indazol-1-yl)methyl)phenyl)methanol] | > 50 | > 50 | > 50 | > 50 | > 50 |  |  | > 50 |  |  |  |  |  |  |  |  | 
Br.N=C(N)SCc1ccc(Cn2ncc3cccc(C(F)(F)F)c32)cc1 [Compound 14, 4-((7-(Trifluoromethyl)-1H-indazol-1-yl)methyl)benzyl carbamimidothioate hydrobromide] | 16.8 ± 3.5 | 12.3 ± 2.7 | 14.2 ± 2.3 | 17.7 ± 3.7 | 29.3 ± 4.9 |  | 206 to 208 |  |  |  |  |  |  |  |  |  | 
Br.N=C(N)SCc1ccc(Cn2cc3cccc(C(F)(F)F)c3n2)cc1 [Compound 15, 4-((7-(Trifluoromethyl)-2H-indazol-2-yl)methyl)benzyl carbamimidothioate hydrobromide] | > 50 | > 50 | > 50 | > 50 | > 50 | > 50 | 195 to 197 |  |  |  |  |  |  |  |  |  | 
Br.C=CCNC(=N)SCc1ccc(Cn2cc3cc(C(F)(F)F)ccc3n2)cc1 [Compound 11, 4-((5-(Trifluoromethyl)-2H-indazol-2-yl)methyl)benzyl allylcarbamimidothioate hydrobromide] | > 50 | > 50 | > 50 | > 50 | > 50 | > 50 | 105 to 107 |  |  |  |  |  |  |  |  |  | 
Br.C=CCNC(=N)SCc1ccc(Cn2ncc3cc(C(F)(F)F)ccc32)cc1 [Compound 10, 4-((5-(Trifluoromethyl)-1H-indazol-1-yl)methyl)benzyl allylcarbamimidothioate hydrobromide] | > 50 | 48.4 ± 3.2 | > 50 | > 50 | > 50 | > 50 | 104 to 106 |  |  |  |  |  |  |  |  |  | 
O=Cc1ccc(Cn2nc(Br)c3cc(C(F)(F)F)ccc32)cc1 [Compound 20, 4-((3-Bromo-5-(trifluoromethyl)-1H-indazol-1-yl)methyl)benzaldehyde] | > 50 | > 50 | > 50 | > 50 | > 50 |  |  | > 50 |  |  |  |  |  |  |  |  | 
Br.COc1ccc2c(c1)c(Br)nn2Cc1ccc(CSC(=N)N)cc1 [Compound 18, 4-((3-Bromo-5-methoxy-1H-indazol-1-yl)methyl)benzyl carbamimidothioate hydrobromide] | 42.2 ± 5.8 | 44.6 ± 3.7 | 39.2 ± 3.9 | > 50 | > 50 | > 50 | 171 to 173 |  |  |  |  |  |  |  |  |  | 
COC(=O)/C=C/c1ccc(Cn2ncc3cc(C(F)(F)F)ccc32)cc1 [Compound 8, Methyl (E)-3-(4-((5-(trifluoromethyl)-1H-indazol-1-yl)methyl)phenyl)acrylate] | > 50 | > 50 | > 50 | > 50 | > 50 |  |  | > 50 |  |  |  |  |  |  |  |  | 
Br.N=C(N)SCc1ccc(Cn2cc3cc(C(F)(F)F)ccc3n2)cc1 [Compound 13, 4-((5-(Trifluoromethyl)-2H-indazol-2-yl)methyl)benzyl carbamimidothioate hydrobromide] | 22.7 ± 2.3 | 33.2 ± 4.4 | 18.2 ± 3.1 | 18.9 ± 5.1 | 14.4 ± 2.3 | 4.7 to 33 | 181 to 183 |  |  |  |  |  |  |  |  |  | 
Br.C=CCNC(=N)SCc1ccc(CN2C(=O)C(=O)c3cc(C(F)(F)F)ccc32)cc1 [Compound 7, 4-((2,3-Dioxo-5-(trifluoromethyl)indolin-1-yl)methyl)benzyl allylcarbamimidothioate hydrobromide] | 9.1 ± 1.3 | 10.3 ± 2.4 | 12 ± 3.1 | 9.7 ± 1.1 | 8.1 ± 0.8 |  | 122 to 124 |  | less cytotoxic than KS100 |  |  |  |  |  |  |  | 
COC(=O)/C=C/c1ccc(Cn2cc3cc(C(F)(F)F)ccc3n2)cc1 [Compound 9, Methyl (E)-3-(4-((5-(trifluoromethyl)-2H-indazol-2-yl)methyl)phenyl)acrylate] | > 50 | > 50 | > 50 | > 50 | > 50 |  |  | > 50 |  |  |  |  |  |  |  |  | 
Br.COc1ccc2c(c1)C(=O)C(=O)N2Cc1ccc(CSC(=N)N)cc1 [Compound 6, 4-((5-Methoxy-2,3-dioxoindolin-1-yl)methyl)benzyl carbamimidothioate hydrobromide] | 45 ± 2.5 | > 50 | > 50 | > 50 | > 50 |  | 214 to 216 |  | inert |  |  |  |  |  |  |  | 
4-((5-(Trifluoromethyl)-1H-indazol-1-yl)methyl)benzylcarbamimidothioate hydrobromide [Compound 12] |  |  |  |  |  |  |  |  |  | 8.2 ± 2.7 | 4.7 ± 0.4 | 5.5 ± 0.1 | 4.7 ± 1.1 | 3.1 ± 0.8 | 10.01 ± 0.01 | −14.03 ± 0.06 | 4.7 to 33
